Patent publication US12514859B2, “Pyrazole pyrimidine derivative and uses thereof” (Yissum Research Development Company of the Hebrew …, priority 2015, dated 2026)

Key:
[1] = system: p53, DNA damage response (γH2AX); assay: p53 and DNA damage response activation in RKO cells (Western blot, primary screen and dose response); assay type: cell-based; design: p53 stabilization: dose or concentration left out as unconfirmed; conditions: for DDR & p53 activity: 16 hours, Western blot, average value
Description: (§1) Primary Screen in RKO cells for compounds having typical CKIα inhibitory activity (β-catenin and p53 stabilization and histone H2AX phosphorylation; see Elyada et al, Nature 2011 Feb. 17; 470(7334):409-13; Pribluda et al, Cancer Cell 2013 Aug. 12; 24(2):242-56). RKO colorectal cells were incubated with 10 μM of each of the compounds for 16 hours at 37° C. Cells were washed with PBS and cell pellets were incubated with ice cold protein lysis buffer containing protease inhibitor cocktail (1/200; Calbiochem) and phosphatase inhibitors (20 mM p-nitrophenyl phosphate (PNPP), 20 mM β-glycerophosphate and 300 nM okadaic acid). Western blot analysis was performed by means of standard techniques. Blots were incubated with antibodies detecting β-catenin (1/2,500; BD Transduction), p53 (DO-1&1801 hybridoma mix; dilution of 1:20 of supernatants from each), CKIα (C-19; 1/1,000; Santa Cruz Biotechnology) and phospho-histoneH2AX (S139; 1/1,000; Millipore). Secondary antibodies were HRP-linked goat anti-mouse, goat anti-rabbit and rabbit anti-goat antibodies (all 1/10,000; Jackson). Blots were developed using ECL (GE Healthcare).
(§2) Active compounds were further analyzed in a dose-response experiment (FIGS. 1A and 1B). Similar to the primary screen, RKO cells were incubated with descending concentrations of each of the active compounds for 16 hours at 37° C. Cell extract isolation and Western Blot analysis were similar to the primary screen.
(§3) Table 1 provides quantified information for compounds of the invention in activation of p53 and DNA damage response (DDR) and β-catenin stabilization as an indicator of Wnt pathway activation. p53 activation was determined according to the degree of protein stabilization in several Western blot assays (Western blot examples are shown in FIGS. 1A and 1B). […] In contrast, A35 started stabilizing p53 at […], with maximal stabilization at […] (FIG. 1A, upper right panel) and thus received an average value of +++ for p53 activation.

Wnt/β-catenin = assay: β-catenin stabilization (Wnt pathway activation) in RKO cells (Western blot); assay type: cell-based; conditions: 16 hours, Western blot
Description: as §1, §2, §3

Row | Structure (SMILES) | DDR & p53 activity [1] | β-Catenin activity (Wnt/β-catenin) | other results
1 | Cn1ncc(-c2nc(NC3CCC(NCc4cn[nH]c4)CC3)ncc2Cl)c1CC1CC1 [Compound A75, (1R,4R)—N^1-((1H-pyrazol-4-yl)methyl)-N^4-(5-chloro-4-(5-(cyclopropylmethyl)-1-methyl-1H-pyrazol-4-yl)pyrimidin-2-yl)cyclohexane-1,4-diamine] | +++++ (+++++ indicates maximal activation of p53 and DDR at >0.1 μM) | +++ (+++ indicates maximal β-catenin or p53 stabilization at >2 μM) | –
2 | Cc1[nH]ncc1CN[C@H]1CC[C@H](Nc2ncc(Cl)c(-c3cnn(C)c3CC3CC3)n2)CC1 [Compound A91, (1R,4R)—N^1-(5-chloro-4-(5-(cyclopropylmethyl)-1-methyl-1H-pyrazol-4-yl)pyrimidin-2-yl)-N^4-((5-methyl-1H-pyrazol-4-yl)methyl)cyclohexane-1,4-diamine] | +++ (+++ indicates maximal β-catenin or p53 stabilization at >2 μM) | – | –
3 | Cn1ncc(-c2nc(N[C@H]3CC[C@H](Nc4ccccc4)CC3)ncc2Cl)c1CC1CC1 [Compound A68, (1R,4R)—N^1-(5-chloro-4-(5-(cyclopropylmethyl)-1-methyl-1H-pyrazol-4-yl)pyrimidin-2-yl)-N^4-phenylcyclohexane-1,4-diamine] | + (+ indicates low, yet significant activation at a compound concentration of 6 μM) | + (+ indicates low, yet significant activation at a compound concentration of 6 μM) | –
4 | Cn1ncc(-c2ccnc(N[C@H]3CC[C@H](N(C)C)CC3)n2)c1CC1CC1 [Compound A28, (1r, 4r)-N^1-(4-(5-(cyclopropylmethyl)-1-methyl-1H-pyrazol-4-yl)pyrimidin-2-yl)-N4,N4-dimethylcyclohexane-1,4-diamine] | – | +++ (+++ indicates maximal β-catenin or p53 stabilization at >2 μM) | –
5 | Cn1ncc(-c2nc(NC3CCC(NCc4cccnc4)CC3)ncc2Cl)c1CC1CC1 [Compound A76, (1R,4R)—N^1-(5-chloro-4-(5-(cyclopropylmethyl)-1-methyl-1H-pyrazol-4-yl)pyrimidin-2-yl)-N^4-(pyridin-3-ylmethyl)cyclohexane-1,4-diamine] | +++ (+++ indicates maximal β-catenin or p53 stabilization at >2 μM) | – | –
6 | Cn1ncc(-c2ccnc(N[C@H]3CC[C@H](N)CC3)n2)c1CC1CCC1 [Compound A45, (1R, 4R)—N^1-(4-(5-(cyclobutylmethyl)-1-methyl-1H-pyrazol-4-yl)pyrimidin-2-yl)cyclohexane-1,4-diamine] | – | + (+ indicates low, yet significant activation at a compound concentration of 6 μM) | –
7 | Cn1ncc(-c2nc(N[C@H]3CC[C@H](NC(=O)c4cn[nH]c4)CC3)ncc2Cl)c1CC1CC1 [Compound A87, N-((1R,4R)-4-((5-chloro-4-(5-(cyclopropylmethyl)-1-methyl-1H-pyrazol-4-yl)pyrimidin-2-yl)amino)cyclohexyl)-1H-pyrazole-4-carboxamide] | + (+ indicates low, yet significant activation at a compound concentration of 6 μM) | +++ (+++ indicates maximal β-catenin or p53 stabilization at >2 μM) | –
8 | Cn1ncc(-c2nc(NC3CCC(NCc4ccn[nH]4)CC3)ncc2Cl)c1CC1CC1 [Compound A82, (1R,4R)—N^1-((1H-pyrazol-3-yl)methyl)-N^4-(5-chloro-4-(5-(cyclopropylmethyl)-1-methyl-1H-pyrazol-4-yl)pyrimidin-2-yl)cyclohexane-1,4-diamine] | +++ (+++ indicates maximal β-catenin or p53 stabilization at >2 μM) | – | –
9 | Cn1ncc(-c2nc(N[C@H]3CC[C@H](n4cccn4)CC3)ncc2Cl)c1CC1CC1 [Compound A64, N-((1R,4R)-4-(1H-pyrazol-1-yl)cyclohexyl)-5-chloro-4-(5-(cyclopropylmethyl)-1-methyl-1H-pyrazol-4-yl)pyrimidin-2-amine] | + (+ indicates low, yet significant activation at a compound concentration of 6 μM) | – | –
10 | Cn1ncc(-c2ccnc(NC3CCC4(CC3)COC(=O)N4)n2)c1CC1CC1 (centres unmarked) [Compound A26, 8-((4-(5-(cyclopropylmethyl)-1-methyl-1H-pyrazol-4-yl)pyrimidin-2-yl)amino)-3-oxa-1-azaspiro[4.5]decan-2-one] | + (+ indicates low, yet significant activation at a compound concentration of 6 μM) | + (+ indicates low, yet significant activation at a compound concentration of 6 μM) | –
11 | Cn1ncc(-c2ccnc(N[C@H]3CC[C@H](N)CC3)n2)c1C(O)C1CC1 (stereo partly drawn) [Compound A58, (4-(2-(((1R,4R)-4-aminocyclohexyl)amino)pyrimidin-4-yl)-1-methyl-1H-pyrazol-5-yl)(cyclopropyl)methanol] | + (+ indicates low, yet significant activation at a compound concentration of 6 μM) | – | –
12 | Cn1ncc(-c2ccnc(N[C@H]3CC[C@H](N4CCC4)CC3)n2)c1CC1CC1 [Compound A50, N-((1R, 4R)-4-(azetidin-1-yl)cyclohexyl)-4-(5-(cyclopropylmethyl)-1-methyl-1H-pyrazol-4-yl)pyrimidin-2-amine] | +++ (+++ indicates maximal β-catenin or p53 stabilization at >2 μM) | – | –
13 | Cn1ncc(-c2ccnc(N[C@H]3CC[C@H](N4CCCCC4)CC3)n2)c1CC1CC1 [Compound A47, 4-(5-(cyclopropylmethyl)-1-methyl-1H-pyrazol-4-yl)-N-((1R,4R)-4-(piperidin-1-yl)cyclohexyl)pyrimidin-2-amine] | – | + (+ indicates low, yet significant activation at a compound concentration of 6 μM) | –
14 | CC(C)n1ncc(-c2ccnc(N[C@H]3CC[C@H](N)CC3)n2)c1CC1CC1 [Compound A35, (1r, 4r)-N^1-(4-(5-(cyclopropylmethyl)-1-isopropyl-1H-pyrazol-4-yl)pyrimidin-2-yl)cyclohexane-1,4-diamine] | +++ (+++ indicates maximal β-catenin or p53 stabilization at >2 μM) | – | concentration at which p53 stabilization starts / is significantly above non-treatment control ([1]; FIG. 1A): 0.2 µM; concentration of maximal p53 stabilization ([1]; FIG. 1A): 1 µM
15 | CC(C)n1ncc(-c2nc(N[C@H]3CC[C@H](N)CC3)ncc2Cl)c1CC1CC1 [Compound A59, (1R,4R)—N^1-(5-chloro-4-(5-(cyclopropylmethyl)-1-isopropyl-1H-pyrazol-4-yl)pyrimidin-2-yl)cyclohexane-1,4-diamine] | +++ (+++ indicates maximal β-catenin or p53 stabilization at >2 μM) | – | –
16 | Cn1ncc(-c2nc(N[C@H]3CC[C@H](NCC(F)(F)F)CC3)ncc2Cl)c1CC1CC1 [Compound A94, (1R,4R)—N^1-(5-chloro-4-(5-(cyclopropylmethyl)-1-methyl-1H-pyrazol-4-yl)pyrimidin-2-yl)-N^4-(2,2,2-trifluoroethyl)cyclohexane-1,4-diamine] | + (+ indicates low, yet significant activation at a compound concentration of 6 μM) | – | –
17 | Cn1ncc(-c2nc(NC3CCC(C)(N)CC3)ncc2Cl)c1CC1CC1 [Compound A30-1, (1R,4R)—N^1-(5-chloro-4-(5-(cyclopropylmethyl)-1-methyl-1H-pyrazol-4-yl)pyrimidin-2-yl)-4-methylcyclohexane-1,4-diamine] | ++++ (++++ indicates maximal activation of p53 and DDR at >0.5 μM) | – | –
18 | Cn1ncc(-c2nc(NC3CCC(NCc4ccccc4)CC3)ncc2Cl)c1CC1CC1 [Compound A74, (1R,4R)—N^1-benzyl-N^4-(5-chloro-4-(5-(cyclopropylmethyl)-1-methyl-1H-pyrazol-4-yl)pyrimidin-2-yl)cyclohexane-1,4-diamine] | +++ (+++ indicates maximal β-catenin or p53 stabilization at >2 μM) | – | –
19 | N[C@H]1CC[C@H](Nc2nccc(-c3cnn(C4COC4)c3CC3CC3)n2)CC1 [Compound A43, (1R, 4R)—N^1-(4-(5-(cyclopropylmethyl)-1-(oxetan-3-yl)-1H-pyrazol-4-yl)pyrimidin-2-yl)cyclohexane-1,4-diamine] | + (+ indicates low, yet significant activation at a compound concentration of 6 μM) | – | concentration at which p53 stabilization starts / is significantly above non-treatment control ([1]; FIG. 1A): 6 µM; p53 stabilization ([1]; FIG. 1A): no activity
20 | Cn1ncc(-c2nc(N[C@H]3CC[C@H](N(Cc4cn[nH]c4)CC(F)(F)F)CC3)ncc2Cl)c1CC1CC1 [Compound A95, (1R,4R)—N1-((1H-pyrazol-4-yl)methyl)-N4-(5-chloro-4-(5-(cyclopropylmethyl)-1-methyl-1H-pyrazol-4-yl)pyrimidin-2-yl)-N1-(2,2,2-trifluoroethyl)cyclohexane-1,4-diamine] | +++ (+++ indicates maximal β-catenin or p53 stabilization at >2 μM) | – | –
21 | Cn1ncc(-c2ccnc(N[C@H]3CC[C@H](N4CCCC4)CC3)n2)c1CC1CC1 [Compound A49, 4-(5-(cyclopropylmethyl)-1-methyl-1H-pyrazol-4-yl)-N-((1R, 4R)-4-(pyrrolidin-1-yl)cyclohexyl)pyrimidin-2-amine] | + (+ indicates low, yet significant activation at a compound concentration of 6 μM) | – | –
